Assay results: patent publication US11447504B2, “Macrocyclic chlorine substituted indole derivatives” (Bayer Aktiengesellschaft, priority 2017, dated 2022)
Structures can show the parent of a compound that is named as a salt. Where two headings read alike, the source gives them in different places.

Assays:
SUDHL10 [1] = assay: Induction of caspase-3/7 activity (Assay 4), SUDHL10; type: cell-based; settings: SUDHL10 cells
Experimental: (§1) Induction of Caspase-3/7 Activity Upon Treatment of Cells with Selected Compounds
In contrast, MCL-1 inhibitors are expected to antagonize this effect leading to an increase in apoptosis, which can be determined by measuring the activity of caspase-3/7.
(§2) The activity of caspase-3/7 was determined in DLBCL (Diffuse large B-cell lymphoma) cell lines (SUDHL5 and SUDHL10) upon treatment with different compounds, using the Caspase-Glo®3/7 reagent from Promega (G8092).
(§3) Rim wells were excluded. The cells were incubated for 3 hours in a humidified incubator at 37° C.
(§4) For the evaluation of the results, the background measured with “medium-only” was subtracted from all other values.

SUDHL10 [2] = assay: Induction of cytotoxicity (Assay 6), SUDHL10
SUDHL5 [3] = assay: Induction of caspase-3/7 activity (Assay 4), SUDHL5; type: cell-based; settings: SUDHL5 cells
Experimental: as §1
The BH3-domain of MCL-1 sequesters pro-apoptotic proteins, thereby inhibiting apoptosis. In contrast, MCL-1 inhibitors are expected to antagonize this effect leading to an increase in apoptosis, which can be determined by measuring the activity of caspase-3/7.
as §2, §3, §4

HMC-1-8 = assay: Antiproliferation assay 7, HMC-1-8; type: cell-based; settings: HMC-1-8 cells, CellTiter-Glo, read-out: Antiproli HMC-1-8 IC50 median
Experimental: (§5) Assessment of the Anti-Proliferative Effect of Compounds in Different Cell Lines
(§6) The impact of compounds on the proliferation of different cell lines was assessed using the CellTiter-Glo® Luminescent Cell Viability reagent from Promega (G7573).
(§7) In parallel, cells were plated in a reference (day 0) plate for time zero determination.
(§8) Rim wells were excluded. The cells were incubated for 72 hours in a humidified incubator at 37° C. The day 0 plate was measured by adding 30 μL/well of CTG solution (CellTiter-Glo® Luminescent Cell Viability reagent, Promega G7573) to time zero wells in the reference plate followed by a 10 minutes incubation and luminescence reading at 0.1 ms. using the PHERAstar FS microplate reader (BMG Labtech).
(§9) After 72 hours incubation, the treated plates were measured in the same way as the day 0 plate mentioned above.

SUDHL5 [4] = assay: Induction of cytotoxicity (Assay 6), SUDHL5
AMO-1 = assay: Antiproliferation assay 7, AMO-1; type: cell-based; settings: AMO-1 cells, CellTiter-Glo, read-out: Antiproli AMO-1 IC50 median
Experimental: as §5, §6, §7, §8, §9

SUDHL5 [5] = assay: Antiproliferation assay 7, SUDHL5; type: cell-based; settings: SUDHL5 cells, CellTiter-Glo, read-out: Antiproli SUDHL5 IC50 (median)
Experimental: as §5, §6, §7, §8, §9

[6] = Homo sapiens, SU-DHL10, 3 h, Caspase-Glo 3/7, read-out: Caspase SUDHL10 EC50 (median)
[7] = Homo sapiens, SU-DHL10, 5 h, read-out: Cytotox SUDHL10 IC50 (median), SUDHL10 cells, 5 hours, CellTiter-Glo
[8] = Homo sapiens, SU-DHL-5, 3 h, Caspase-Glo 3/7, read-out: Caspase SUDHL5 EC50 (median)
[9] = Homo sapiens, SU-DHL-5, 5 h, read-out: Cytotox SUDHL5 IC50 (median), SUDHL5 cells, 5 hours, CellTiter-Glo
[10] = 3 hours, Caspase-Glo 3/7, read-out: Caspase SUDHL10 EC50 (median)
[11] = read-out: Cytotox SUDHL10 IC50 (median), SUDHL10 cells, 5 hours, CellTiter-Glo
[12] = 3 hours, Caspase-Glo 3/7, read-out: Caspase SUDHL5 EC50 (median)
[13] = read-out: Cytotox SUDHL5 IC50 (median), SUDHL5 cells, 5 hours, CellTiter-Glo

Row | EC50 (SUDHL10 [1]; [6]) [nM] | EC50 (SUDHL5 [3]; [8]) [nM] | IC50 (SUDHL5 [5]; Homo sapiens, SU-DHL-5, 72 h) [nM] | EC50 (SUDHL10 [1]; [10]) [nM] | EC50 (SUDHL5 [3]; [12]) [nM] | IC50 (SUDHL5 [5]; 72 hours) [nM] | Compound | IC50 (SUDHL10 [2]; [7]) [nM] | IC50 (HMC-1-8; 72 h) [nM] | IC50 (SUDHL5 [4]; [9]) [nM] | IC50 (AMO-1; Homo sapiens, AMO1, 72 h) [nM] | IC50 (SUDHL10 [2]; [11]) [nM] | IC50 (HMC-1-8; 72 hours) [nM] | IC50 (SUDHL5 [4]; [13]) [nM] | IC50 (AMO-1; 72 hours) [nM]
1 | 440 | 330 | 250 | – | – | – | Cc1c2c(nn1C)CN(CC(F)(F)F)CCCCn1c(C(=O)O)c(CCCOc3cccc4cc(F)ccc34)c3ccc(Cl)c-2c31 (racemic) [Example 58, (rac)-4-chloro-7-{3-[(6-fluoronaphthalen-1-yl)oxy]propyl}-2,3-dimethyl-14-(2,2,2-trifluoroethyl)-10,11,12,13,14,15-hexahydro-2H-pyrazolo[3′,4′:8,9][1,6]diazacycloundecino[10,11,1-hi]indole-8-carboxylic Acid] | 530 | 1720 | 340 | 683 | – | – | – | –
2 | – | – | – | 980 | 610 | 380 | Cc1c2c(nn1C)OCCCCCn1c(C(=O)O)c(CCCOc3cccc4cc(F)ccc34)c3ccc(Cl)c-2c31 (racemic) [Example 83, (rac)-4-chloro-7-{3-[(6-fluoronaphthalen-1-yl)oxy]propyl}-2,3-dimethyl-11,12,13,14-tetrahydro-2H,10H-pyrazolo[3′,4′:2,3][1,6]oxazacycloundecino[4,5,6-hi]indole-8-carboxylic Acid] | – | – | – | – | 1100 | 7900 | 660 | 730
3 | – | – | – | 490 | 240 | 340 | Cc1c2c(nn1C)CN(CC(F)(F)F)CCCCn1c(C(=O)O)c(CCCOc3cccc4cc(F)ccc34)c3ccc(Cl)c-2c31 (single isomer, unassigned; enantiomer 1) [Example 59, 4-chloro-7-{3-[(6-fluoronaphthalen-1-yl)oxy]propyl}-2,3-dimethyl-14-(2,2,2-trifluoroethyl)-10,11,12,13,14,15-hexahydro-2H-pyrazolo[3′,4′:8,9][1,6]diazacycloundecino[10,11,1-hi]indole-8-carboxylic Acid—Enantiomer 1] | – | – | – | – | 550 | 1120 | 310 | 216
4 | – | – | – | 27000 | 9000 | 20000 | Cc1c2c(nn1C)CN(CC(F)(F)F)CCCCn1c(C(=O)O)c(CCCOc3cccc4cc(F)ccc34)c3ccc(Cl)c-2c31 (single isomer, unassigned; enantiomer 2) [Example 60, 4-chloro-7-{3-[(6-fluoronaphthalen-1-yl)oxy]propyl}-2,3-dimethyl-14-(2,2,2-trifluoroethyl)-10,11,12,13,14,15-hexahydro-2H-pyrazolo[3′,4′:8,9][1,6]diazacycloundecino[10,11,1-hi]indole-8-carboxylic Acid—Enantiomer 2] | – | – | – | – | 26000 | > 30000 | 12000 | 25500
5 | – | – | – | 25000 | 9700 | 13000 | Cc1c2c(nn1C)OCCCCCn1c(C(=O)O)c(CCCOc3cccc4cc(F)ccc34)c3ccc(Cl)c-2c31 (single isomer, unassigned; enantiomer 2) [Example 85, 4-chloro-7-{3-[(6-fluoronaphthalen-1-yl)oxy]propyl}-2,3-dimethyl-11,12,13,14-tetrahydro-2H,10H-pyrazolo[3′,4′:2,3][1,6]oxazacycloundecino[4,5,6-hi]indole-8-carboxylic Acid—Enantiomer 2] | – | – | – | – | 25000 | > 30000 | 17000 | 6100

Second part, the compound before the results:

Row | Compound | EC50 (SUDHL10 [1]; [6]) [nM] | EC50 (SUDHL5 [3]; [8]) [nM] | IC50 (SUDHL5 [5]; Homo sapiens, SU-DHL-5, 72 h) [nM] | EC50 (SUDHL10 [1]; [10]) [nM] | EC50 (SUDHL5 [3]; [12]) [nM] | IC50 (SUDHL5 [5]; 72 hours) [nM] | IC50 (SUDHL10 [2]; [7]) [nM] | IC50 (HMC-1-8; 72 h) [nM] | IC50 (SUDHL5 [4]; [9]) [nM] | IC50 (AMO-1; Homo sapiens, AMO1, 72 h) [nM] | IC50 (SUDHL10 [2]; [11]) [nM] | IC50 (HMC-1-8; 72 hours) [nM] | IC50 (SUDHL5 [4]; [13]) [nM] | IC50 (AMO-1; 72 hours) [nM]
6 | CCc1c2c(nn1C)CCCCCCn1c(C(=O)O)c(CCCOc3cccc4cc(F)ccc34)c3ccc(Cl)c-2c31 (racemic) [Example 54, (rac)-4-chloro-3-ethyl-7-{3-[(6-fluoronaphthalen-1-yl)oxy]propyl}-2-methyl-10,11,12,13,14,15-hexahydro-2H-pyrazolo[4′,3′:4,5]azacycloundecino[3,2,1-hi]indole-8-carboxylic Acid] | 520 | 600 | 430 | – | – | – | 740 | 2210 | 670 | 1350 | – | – | – | –
7 | CCc1c2c(nn1C)CCCCCCn1c(C(=O)O)c(CCCOc3cccc4ccccc34)c3ccc(Cl)c-2c31 (single isomer, unassigned; enantiomer 1) [Example 52, (+)-4-chloro-3-ethyl-2-methyl-7-{3-[(naphthalen-1-yl)oxy]propyl}-10,11,12,13,14,15-hexahydro-2H-pyrazolo[4′,3′:4,5]azacycloundecino[3,2,1-hi]indole-8-carboxylic acid-N-ethylethanamine Salt—Enantiomer 1] | – | – | – | – | 370 | – | – | – | – | – | – | 5250 | 320 | 1440
8 | Cc1c2c(nn1C)COCC(F)(F)CCn1c(C(=O)O)c(CCCOc3cccc4ccccc34)c3ccc(Cl)c-2c31 (single isomer, unassigned; enantiomer 1) [Example 56, 4-chloro-12,12-difluoro-2,3-dimethyl-7-{3-[(naphthalen-1-yl)oxy]propyl}-2,10,11,12,13,15-hexahydropyrazolo[4′,3′:9,10][1,6]oxazacycloundecino[8,7,6-hi]indole-8-carboxylic acid-N-ethylethanamine Salt—Enantiomer 1] | – | – | – | 1800 | 690 | 1100 | – | 8270 | – | – | 1600 | – | 590 | 1770
9 | CCc1c2c(nn1C)N(CCC1CCOCC1)CCCCCn1c(C(=O)O)c(CCCOc3cccc4cc(F)ccc34)c3ccc(Cl)c-2c31 (single isomer, unassigned; enantiomer 1) [Example 81, 4-chloro-3-ethyl-7-{3-[(6-fluoronaphthalen-1-yl)oxy]propyl}-2-methyl-15-[2-(oxan-4-yl)ethyl]-10,11,12,13,14,15-hexahydro-2H-pyrazolo[4′,3′:4,5][1,6]diazacycloundecino[3,2,1-hi]indole-8-carboxylic acid N-ethylethanamine Salt—Enantiomer 1] | – | – | – | 170 | 220 | 320 | – | 1900 | – | 120 | 230 | – | 290 | –
10 | CCc1c2c(nn1C)CCCCCCn1c(C(=O)O)c(CCCOc3cccc4ccccc34)c3ccc(Cl)c-2c31 (single isomer, unassigned; enantiomer 2) [Example 53, (−) 4-chloro-3-ethyl-2-methyl-7-{3-[(naphthalen-1-yl)oxy]propyl}-10,11,12,13,14,15-hexahydro-2H-pyrazolo[4′,3′:4,5]azacycloundecino[3,2,1-hi]indole-8-carboxylic acid-N-ethylethanamine Salt—Enantiomer 2] | – | – | – | – | 3500 | – | – | – | – | – | – | 16800 | 2500 | 11200
11 | Cc1c2c(nn1C)COCC(F)(F)CCn1c(C(=O)O)c(CCCOc3cccc4ccccc34)c3ccc(Cl)c-2c31 (single isomer, unassigned; enantiomer 2) [Example 57, 4-chloro-12,12-difluoro-2,3-dimethyl-7-{3-[(naphthalen-1-yl)oxy]propyl}-2,10,11,12,13,15-hexahydropyrazolo[4′,3′:9,10][1,6]oxazacycloundecino[8,7,6-hi]indole-8-carboxylic acid-N-ethylethanamine Salt—Enantiomer 2] | – | – | – | 13000 | 7600 | 3900 | – | – | – | – | 10000 | 8680 | 6900 | 11800
12 | Cc1c2c(nn1C)COCC1CCC1Cn1c(C(=O)O)c(CCCOc3cccc4ccccc34)c3ccc(Cl)c-2c31 (single isomer, unassigned; stereoisomer 1) [Example 63] | – | 1400 | 2600 | 3100 | – | – | – | 7850 | 1500 | – | 3300 | – | – | 2560
